Laboratory results as given in ChEMBL document CHEMBL1201862, “PubChem BioAssay data set” (2004).
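In this assay, cells in 96-well plates receive the compound at five concentrations for 48 hours. Endpoints are linearly interpolated between the surrounding concentrations. GI50: concentration for 50% inhibition of growth.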 Activity calls are given as the source filed them. Rule as the data show it: active = GI50 up to about 1.1 µM and inactive = higher.

Assays:
Assay in all cases: DTP human tumour cell line panel, 48 h
[1] = system: NCI-H460
[2] = system: SK-MEL-2
[3] = system: A498
[4] = system: MOLT-4
[5] = system: SK-MEL-28
[6] = system: T47D
[7] = system: SNB-75
[8] = system: HCC 2998
[9] = system: HL-60
[10] = system: SF-295
[11] = system: SF-539
[12] = system: LOX IMVI
[13] = system: MCF7
[14] = system: DU-145
[15] = system: PC-3
[16] = system: Hs-578T
[17] = system: RPMI-8226
[18] = system: SNB-19
[19] = system: M14
[20] = system: UACC-62

SMILES | GI50 [1] | GI50 [2] | GI50 [3] | GI50 [4] | GI50 [5] | GI50 [6] | GI50 [7] | GI50 [8] | GI50 [9] | GI50 [10] | GI50 [11] | GI50 [12] | GI50 [13] | GI50 [14] | GI50 [15] | GI50 [16] | GI50 [17] | GI50 [18] | GI50 [19] | GI50 [20]
Oc1ccc(/N=N/c2ccc(Cl)cc2)cc1 | 16.9 µM (inactive) | 14.2 µM (inactive) | 17.3 µM (inactive) | 13.2 µM (inactive) | 23 µM (inactive) | 15 µM (inactive) | 18.9 µM (inactive) | 15.7 µM (inactive) | 4.38 µM (inactive) | 16.4 µM (inactive) | 18.4 µM (inactive) | 11.9 µM (inactive) | 17.7 µM (inactive) | 16.4 µM (inactive) | 14.9 µM (inactive) | 28.8 µM (inactive) | 24.2 µM (inactive) | 18 µM (inactive) | 10.7 µM (inactive) | 11.9 µM (inactive)
CCOP(=O)(OCC)/C(F)=C/c1ccc(F)cc1 | > 100 µM (inactive) | > 100 µM (inactive) | > 100 µM (inactive) | > 100 µM (inactive) | > 100 µM (inactive) | > 100 µM (inactive) | > 100 µM (inactive) | > 10 µM (inactive) | > 100 µM (inactive) | > 100 µM (inactive) | > 100 µM (inactive) | > 100 µM (inactive) | > 100 µM (inactive) | > 100 µM (inactive) | > 100 µM (inactive) | > 100 µM (inactive) | > 100 µM (inactive) | > 100 µM (inactive) | > 100 µM (inactive) | 91.2 µM (inactive)
N#Cc1c(-c2ccc(Cl)cc2)cc(-c2ccc(Nc3ccnc4cc(Cl)ccc34)cc2)[nH]c1=O | > 100 µM (inactive) | 31.4 µM (inactive) | 50.4 µM (inactive) | > 58.6 µM (inactive) | > 100 µM (inactive) | > 100 µM (inactive) | 14.6 µM (inactive) | > 100 µM (inactive) | > 100 µM (inactive) | 16.6 µM (inactive) | > 95.7 µM (inactive) | 31.6 µM (inactive) | > 100 µM (inactive) | 99.3 µM (inactive) | > 100 µM (inactive) | 16.5 µM (inactive) | > 62.5 µM (inactive) | 27.7 µM (inactive) | > 100 µM (inactive) | > 100 µM (inactive)
COc1ccc(C=O)cc1Oc1ccc(C[C@H]2c3c(cc(OC)c4c3Oc3cc5c(cc3O4)CCN(C)C5=O)CCN2C)cc1 | 9.04 µM (inactive) | 11.5 µM (inactive) | 20.1 µM (inactive) | 9.95 µM (inactive) | 10.6 µM (inactive) | 33.7 µM (inactive) | 7.29 µM (inactive) | 8.28 µM (inactive) | 8.85 µM (inactive) | 7.41 µM (inactive) | 8.67 µM (inactive) | 9.29 µM (inactive) | 7.66 µM (inactive) | 12.1 µM (inactive) | 8.75 µM (inactive) | 8.04 µM (inactive) | 5.04 µM (inactive) | 12 µM (inactive) | 8.65 µM (inactive) | –
COc1ccccc1NC(=O)O/N=C(/Cl)C(C)C | 19.3 µM (inactive) | 16.4 µM (inactive) | 15.6 µM (inactive) | 1.92 µM (inactive) | 13.6 µM (inactive) | 21 µM (inactive) | 0.889 µM (active) | 15.6 µM (inactive) | 1.64 µM (inactive) | 15.2 µM (inactive) | 19.5 µM (inactive) | 2.28 µM (inactive) | > 10 µM (inactive) | 18.8 µM (inactive) | 18.5 µM (inactive) | 24.9 µM (inactive) | 2.1 µM (inactive) | 30.9 µM (inactive) | 5.9 µM (inactive) | 17.5 µM (inactive)
COc1cc(-c2oc3c(OC)c(O)c(OC)c(O)c3c(=O)c2OC)cc(OC)c1OC | 39 µM (inactive) | 77.1 µM (inactive) | 51.2 µM (inactive) | 59.6 µM (inactive) | 81.5 µM (inactive) | 24.6 µM (inactive) | 20.8 µM (inactive) | 52.4 µM (inactive) | 41 µM (inactive) | > 100 µM (inactive) | 74.3 µM (inactive) | 35.4 µM (inactive) | 38 µM (inactive) | > 100 µM (inactive) | 65.8 µM (inactive) | 14.3 µM (inactive) | 31.8 µM (inactive) | > 100 µM (inactive) | 14.1 µM (inactive) | 24.3 µM (inactive)
Cc1ccc(O)c(C(c2cc(C)ccc2O)c2cc([N+](=O)[O-])ccc2O)c1 | – | 13.7 µM (inactive) | 17.2 µM (inactive) | 6.12 µM (inactive) | 5.73 µM (inactive) | 16.9 µM (inactive) | 5.46 µM (inactive) | 12.4 µM (inactive) | 3.42 µM (inactive) | 16.7 µM (inactive) | 15.7 µM (inactive) | 31.7 µM (inactive) | 14.5 µM (inactive) | 17.3 µM (inactive) | 9.02 µM (inactive) | 7.71 µM (inactive) | 13.7 µM (inactive) | > 10 µM (inactive) | 11 µM (inactive) | 15.9 µM (inactive)
O=C(c1ccccc1)c1ccc2nc3n(c2c1)C(c1c(F)cccc1F)SC3 (stereo not given) | 3.98 µM (inactive) | 8.3 µM (inactive) | 3.7 µM (inactive) | 2.74 µM (inactive) | 22.3 µM (inactive) | 4.49 µM (inactive) | 4.17 µM (inactive) | 5.25 µM (inactive) | 2.03 µM (inactive) | 3.2 µM (inactive) | 10.3 µM (inactive) | 6.11 µM (inactive) | 3.85 µM (inactive) | 11.3 µM (inactive) | 6.89 µM (inactive) | 8.55 µM (inactive) | 4.62 µM (inactive) | 4.98 µM (inactive) | 3.46 µM (inactive) | 4.47 µM (inactive)
CC(=O)OCC12C(OC(C)=O)C[C@@H](C)C3(CC(c4ccoc4)OC3=O)C1CCC(OC(C)=O)C21CO1 (stereo not given in full) | > 100 µM (inactive) | > 100 µM (inactive) | > 100 µM (inactive) | > 100 µM (inactive) | > 100 µM (inactive) | > 100 µM (inactive) | > 100 µM (inactive) | > 100 µM (inactive) | > 100 µM (inactive) | > 100 µM (inactive) | > 100 µM (inactive) | > 100 µM (inactive) | > 100 µM (inactive) | > 100 µM (inactive) | > 100 µM (inactive) | > 100 µM (inactive) | > 100 µM (inactive) | > 100 µM (inactive) | > 100 µM (inactive) | > 100 µM (inactive)
C=C(Cl)C(Cl)(CBr)CCC(Cl)C(C)(C)Cl (stereo not given) | 1.19 µM (inactive) | 0.238 µM (active) | 1.77 µM (inactive) | 17.7 µM (inactive) | 1.69 µM (inactive) | 0.256 µM (active) | 0.23 µM (active) | 4.52 µM (inactive) | 0.713 µM (active) | 3.17 µM (inactive) | 0.443 µM (active) | 12.9 µM (inactive) | 0.879 µM (active) | 1.35 µM (inactive) | 1.53 µM (inactive) | 0.0237 µM (active) | 0.112 µM (active) | 2.26 µM (inactive) | 17.9 µM (inactive) | –
CN(C)CCNC(=O)c1cc([N+](=O)[O-])ccn1 | 38.1 µM (inactive) | 24.2 µM (inactive) | > 100 µM (inactive) | 23.1 µM (inactive) | > 100 µM (inactive) | 30.3 µM (inactive) | > 100 µM (inactive) | 40 µM (inactive) | 20.3 µM (inactive) | 26.8 µM (inactive) | 22.8 µM (inactive) | 30.1 µM (inactive) | 16.6 µM (inactive) | > 100 µM (inactive) | 23.1 µM (inactive) | 46.8 µM (inactive) | 45.1 µM (inactive) | 33.6 µM (inactive) | 36.7 µM (inactive) | 19.2 µM (inactive)
CC1C(c2ccccc2)OP(=O)(OC(C#N)c2ccccc2)N1C (stereo not given) | > 100 µM (inactive) | 48.2 µM (inactive) | > 100 µM (inactive) | 37.8 µM (inactive) | > 100 µM (inactive) | 40.8 µM (inactive) | > 100 µM (inactive) | 48.4 µM (inactive) | 27.6 µM (inactive) | > 100 µM (inactive) | > 100 µM (inactive) | 79.6 µM (inactive) | 37.6 µM (inactive) | > 100 µM (inactive) | > 100 µM (inactive) | > 100 µM (inactive) | 33.5 µM (inactive) | > 100 µM (inactive) | 97.7 µM (inactive) | > 100 µM (inactive)
COc1cccc(/C=N/NC(=O)CSCC(=O)N/N=C/c2cccc(OC)c2OC)c1OC | > 100 µM (inactive) | > 100 µM (inactive) | 51.2 µM (inactive) | > 100 µM (inactive) | > 100 µM (inactive) | > 100 µM (inactive) | > 100 µM (inactive) | > 100 µM (inactive) | > 100 µM (inactive) | > 100 µM (inactive) | > 100 µM (inactive) | – | > 100 µM (inactive) | > 100 µM (inactive) | > 100 µM (inactive) | 37.7 µM (inactive) | > 100 µM (inactive) | > 100 µM (inactive) | > 100 µM (inactive) | > 100 µM (inactive)
CC(C)=CC(=O)O[C@@H]1CC(C)(C)CC2C3=CCC4[C@]56CC[C@](O)(OC5)C(C)(C)C6CC[C@@]4(C)C3(C)CC[C@]21C(=O)O (stereo not given in full) | 35.2 µM (inactive) | > 100 µM (inactive) | > 100 µM (inactive) | 55.2 µM (inactive) | > 100 µM (inactive) | > 100 µM (inactive) | – | > 100 µM (inactive) | 44.2 µM (inactive) | 56.5 µM (inactive) | 38.5 µM (inactive) | 17.1 µM (inactive) | > 100 µM (inactive) | 56.4 µM (inactive) | 33.2 µM (inactive) | > 100 µM (inactive) | 27.8 µM (inactive) | 54.3 µM (inactive) | > 100 µM (inactive) | > 100 µM (inactive)
